Experimental data from US9469613B2, “(N-(cyanomethyl)-4-(2-(4-morpholinophenylamino)pyrimidin-4-yl)benzamide” (Gilead Sciences, Inc., priority 2014, dated 2016).
Counter-ions that a name gives are not always drawn.

Assays:
[1] = Mass balance/recovery, metabolite profile, pharmacokinetics and safety of radiolabeled CYT-0387; assay type: in vivo, human; details: for share of circulating radioactivity: plasma
Experimental: CYT-0387 is a selective small molecule inhibitor of Janus kinase 1 and 2 (JAK1/JAK2) currently under investigation to treat myelofibrosis. This study evaluated the mass balance/recovery, metabolite profile, pharmacokinetics, and safety of radiolabeled CYT-0387 in humans.
Six healthy individuals (subjects) received a single oral dose of 200 mg CYT-0387 containing ˜100 μCi of [^14C]-CYT-0387. Blood samples were collected up to 21 days or until plasma radioactivity in 2 consecutive samples was below detection limit or urine and feces sampling was discontinued. Urine/feces samples were collected up to 21 days or until ≧90% administered dose was recovered in feces and urine and radioactivity in 2 consecutive sampling intervals were ≦1% administered dose. Plasma concentrations of CYT-0387 and metabolites were measured using LC-MS/MS and total radioactivity assessed by liquid scintillation counting. Metabolite profiling was performed in select urine, feces, and plasma samples. Safety assessments were performed throughout the study.

[2] = Solid form hygroscopicity and stability; assay type: physicochemical; details: exposed to moisture
Experimental: Dynamic Vapor Sorption: The hygroscopicity of N-(cyanomethyl)-4-(2-(4-morpholinophenylamino)pyrimidin-4-yl)benzamide dihydrochloride monohydrate Form II was evaluated at room temperature using a dynamic vapor sorption (DVS) instrument (TGA Q5000 TA Instruments, New Castle, Del.). Water adsorption and desorption were studied as a function of relative humidity (RH) over the range of 0 to 90% at room temperature. The humidity in the chamber was increased from the initial level 50% RH) to 60% RH and held until the solid and atmosphere reached equilibration. The equilibrium test was continued until passed or expired after 10 hours. At this point, RH was raised 10% higher and the process was repeated until 90% RH was reached and equilibrated. During this period, the water sorption was monitored. For desorption, the relative humidity was decreased in a similar manner to measure a full sorption/desorption cycle. All experiments were operated in dm/dt mode (mass variation over time) to determine the equilibration endpoint. Approximately 4 mg of solid CYT-0387 was used. Data analysis was conducted using Universal Analysis 2000 Version 4.7A (TA Instruments, New Castle, Del., USA).

Compound	share of circulating radioactivity [1]	excreted in feces [1]	excreted in urine ([1]; urine)	hygroscopicity and physical stability [2]
NC(=O)CNC(=O)c1ccc(-c2ccnc(Nc3ccc(N4CCOCC4=O)cc3)n2)cc1 [Compound M8, N-(2-amino-2-oxoethyl)-4-(2-((4-(3-oxomorpholino)phenyl)amino)pyrimidin-4-yl)benzamide]	5.8%	–	–	–
O=C(O)c1ccc(-c2ccnc(Nc3ccc(N4CCOCC4=O)cc3)n2)cc1 [Compound M14, 4-(2-((4-(3-oxomorpholino)phenyl)amino)pyrimidin-4-yl)benzoic acid]	–	21.4 % of the dose	–	–
CC(=O)Nc1ccc(Nc2nccc(-c3ccc(C(=O)NCC#N)cc3)n2)cc1 [Compound M20, 4-(2-((4-acetamidophenyl)amino)pyrimidin-4-yl)-N-(cyanomethyl)benzamide]	2.3%	–	–	–
N#CCNC(=O)c1ccc(-c2ccnc(Nc3ccc(N4CCOCC4=O)cc3)n2)cc1 [Compound M21, N-(cyanomethyl)-4-(2-{[4-(3-oxomorpholin-4-yl)phenyl]amino}pyrimidin-4-yl)benzamide]	64.2%	12.7 % of the dose	11.5 % of the dose	–
N#CCNC(=O)c1ccc(-c2ccnc(Nc3ccc(N4CCOCC4)cc3)n2)cc1 [N-(cyanomethyl)-4-(2-(4-morpholinophenylamino)pyrimidin-4-yl)benzamide (CYT-0387) dihydrochloride anhydrous Form I]	–	–	–	hygroscopic and physically unstable
